In US5140009A (Tap Pharmaceuticals, Inc., priority 1990, dated 1992):
Numbered stars: 1 amine (or outer) side, 2 acyl side, 3 side chain; on linkers, the order of the positions; unused ones are H or OH. Square brackets hold non-standard residues; d marks the D form. Peptide text beside a SMILES is read from it. * marks the point of attachment. Propanoyl(3-indol-3-yl) = O=C(CCc1c[nH]c2ccccc12)*; Indole2carbonyl(5-F) = O=C(c1cc2cc(F)ccc2[nH]1)*; Propanoyl(3-(4-F-phenyl)) = O=C(CCc1ccc(F)cc1)*; X10 = O=C([C@@H](Cc1cncs1)N[*:1])[*:2]; d1Nal = N[C@H](Cc1cccc2ccccc12)C(=O)O; d2Nal = N[C@H](Cc1ccc2ccccc2c1)C(=O)O; Cyclopentanecarbonyl = O=C(C1CCCC1)*; Lys(iPr) = CC(C)NCCCC[C@H](N)C(=O)O; NMeY = CN[C@@H](Cc1ccc(O)cc1)C(=O)O; X11 = CN(C)c1ccc(C=CC(=O)*)cc1; d2Thi = N[C@H](Cc1cccs1)C(=O)O; dCha = N[C@H](CC1CCCCC1)C(=O)O; Nicotinoyl = O=C(c1cccnc1)*; Morpholide = C1CN(*)CCO1; X2 = O=C(C=Cc1ccccc1)*; CO = O=C([*:1])[*:2]

biological target: T1, LHRH receptors (Rattus norvegicus, UniProt P30969); test: Receptor Binding (radioligand receptor binding assay); conditions: table 3; rat pituitary membranes, radioiodinated [D-Leu^6 -des Gly^10 ]-LHRH ethyl amide 50 pM, 2 hours at 4° C.; read-out: Receptor Binding pkI (converted)
T1 construct: Pituitary membranes containing LHRH receptors are prepared in batches from quick-frozen rat pituitaries; tissue Hilltop Labs; host or cells: rat pituitary membranes
T1 sequence (P30969 1-327): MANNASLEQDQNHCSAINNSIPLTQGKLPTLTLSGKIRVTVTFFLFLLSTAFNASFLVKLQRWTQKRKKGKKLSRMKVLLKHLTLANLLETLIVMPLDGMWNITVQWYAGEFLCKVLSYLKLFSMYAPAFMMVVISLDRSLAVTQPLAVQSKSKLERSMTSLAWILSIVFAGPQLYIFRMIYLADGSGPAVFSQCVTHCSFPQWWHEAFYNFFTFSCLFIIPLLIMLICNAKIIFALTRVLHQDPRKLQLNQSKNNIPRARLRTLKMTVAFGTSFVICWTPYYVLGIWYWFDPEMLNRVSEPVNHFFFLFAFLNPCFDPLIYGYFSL

| Compound | Ki [nM] |
| --- | --- |
| CCNC(=O)[C@@H]1CCCN1C(=O)[C@H](CCCNC(=N)N)NC(=O)[C@H](CC(C)C)NC(=O)[C@@H](CCCNC(=N)N)NC(=O)[C@H](Cc1ccc(O)cc1)NC(=O)[C@H](CO)NC(=O)[C@H](Cc1c[nH]c2ccccc12)NC(=O)[C@H](Cc1ccccc1)NC(=O)C1CCCC1 [Compound 70, N-(Cyclopentylcarbonyl)-Phe-Trp-Ser-Tyr-D-Arg-Leu-Arg-Pro-NHEt] (Cyclopentanecarbonyl-FWSY[dR]LRP-NHEt) | 0.145 |
| CCNC(=O)[C@@H]1CCCN1C(=O)[C@H](CCCNC(=N)N)NC(=O)[C@H](CC(C)C)NC(=O)[C@@H](Cc1c[nH]c2ccccc12)NC(=O)[C@H](Cc1ccc(O)cc1)NC(=O)[C@H](CO)NC(=O)[C@@H](Cc1c[nH]c2ccccc12)NC(=O)c1cc2cc(F)ccc2[nH]1 [Compound 102, (3-9)[N-(5-Fluoro-2-indolecarbonyl)-D -Trp^3,6 -Pro^9 -NHEt]LHRH] ({Indole2carbonyl(5-F)}-[dW]SY[dW]LRP-NHEt) | 17.4 |
| CCNC(=O)[C@@H]1CCCN1C(=O)[C@H](CCCN=C(N)N)NC(=O)[C@H](CC(C)C)NC(=O)[C@@H](Cc1c[nH]c2ccccc12)NC(=O)[C@H](Cc1ccc(O)cc1)NC(=O)[C@H](CO)NC(=O)CCc1c[nH]c2ccccc12 [Compound 24, (4-9)[N-(3-(3-Indole)propionyl)-Ser^4 -D-Trp^6 -Pro^9 -NHEt] LHRH] ({Propanoyl(3-indol-3-yl)}-SY[dW]LRP-NHEt) | 3.72 |
| CCNC(=O)[C@@H]1CCCN1C(=O)[C@H](CCCNC(=N)N)NC(=O)[C@H](CC(C)C)NC(=O)[C@@H](Cc1c[nH]c2ccccc12)NC(=O)[C@H](Cc1ccc(O)cc1)NC(=O)[C@H](CO)NC(=O)[C@H](Cc1c[nH]c2ccccc12)NC(=O)[C@@H](Cc1ccccc1)NC(C)=O [Compound 134, N-Acetyl-D-Phe-Trp-Ser-Tyr-D-Trp-Leu-Arg-ProNHEt] (Ac-[dF]WSY[dW]LRP-NHEt) | 0.398 |
| CCNC(=O)[C@@H]1CCCN1C(=O)[C@H](CCCNC(=N)N)NC(=O)[C@H](CC(C)C)NC(=O)[C@@H](Cc1c[nH]c2ccccc12)NC(=O)[C@H](Cc1ccc(O)cc1)NC(=O)[C@H](CO)NC(=O)C=Cc1ccccc1 [Compound 15, (4-9)[N-(cinnamoyl)-Ser^4 -D-Trp^6 -Pro^9 -NHEt] LHRH] (X2-SY[dW]LRP-NHEt) | 7.76 |
| CCNC(=O)[C@@H]1CCCN1C(=O)[C@H](CCCNC(=N)N)NC(=O)[C@H](CC(C)C)NC(=O)[C@@H](Cc1c[nH]c2ccccc12)NC(=O)[C@H](Cc1ccc(O)cc1)NC(=O)[C@H](CO)NC(=O)[C@H](Cc1c[nH]c2ccccc12)NC(=O)[C@@H](Cc1ccc2ccccc2c1)NC(=O)N1CCOCC1 [Compound 111, (2-9)[N-(N-alpha-Morpholinocarbonyl)-D-2-Nal^2 -D-Trp^6 -Pro^9 NHEt]LHRH] ({Morpholide-CO}-[d2Nal]WSY[dW]LRP-NHEt) | 2.75 |
| CCNC(=O)[C@@H]1CCCN1C(=O)[C@H](CCCNC(=N)N)NC(=O)[C@H](CC(C)C)NC(=O)[C@@H](Cc1cccs1)NC(=O)[C@H](Cc1ccc(O)cc1)NC(=O)[C@H](CO)NC(=O)CCc1c[nH]c2ccccc12 [Compound 80, (4-9)[N-(3-(3-Indole)propionyl) -Ser^4 -D-Thia^6 -Pro^9 NHEt]LHRH] ({Propanoyl(3-indol-3-yl)}-SY[d2Thi]LRP-NHEt) | 50.1 |
| CCNC(=O)[C@@H]1CCCN1C(=O)[C@H](CCCNC(=N)N)NC(=O)[C@H](CC(C)C)NC(=O)[C@@H](CC(C)C)NC(=O)[C@H](Cc1ccc(O)cc1)NC(=O)[C@H](CO)NC(=O)[C@H](Cc1c[nH]c2ccccc12)NC(=O)C=Cc1ccc(N(C)C)cc1 [Compound 64, (3-9)[N-((para-Dimethylamino)cinnamoyl)-Trp^3 -D-Leu^6 -Pro^9 -NHEt]LHRH] (X11-WSY[dL]LRP-NHEt) | 437 |

same assay, conditions: table 4; rat pituitary membranes, radioligand 50 pM, 2 hours at 4° C.; read-out: Receptor Binding pkI (converted)

| Compound | Ki [nM] |
| --- | --- |
| CC(C)C[C@H](NC(=O)[C@@H](CCCCNC(=O)c1cccnc1)NC(=O)[C@H](Cc1ccc(O)cc1)N(C)C(=O)[C@H](CO)NC(=O)[C@@H](Cc1ccc2ccccc2c1)NC(=O)CCc1ccc(F)cc1)C(=O)N[C@@H](CCCNC(=N)N)C(=O)N1CCC[C@H]1C(=O)N[C@H](C)C(N)=O [Compound 187, (3-10)[N-(3-(4-Fluorophenyl)propionyl)-D-2-Nal^3 -NMeTyr^5 -D-Lys^6 (N-epsilon-nicotinyl)-D-Ala^10]LHRH] ({Propanoyl(3-(4-F-phenyl))}-[d2Nal]S[NMeY][dK](Nicotinoyl)LRP[dA]-NH2) | 0.0224 |
| CC(C)C[C@H](NC(=O)[C@@H](CCCCN)NC(=O)[C@H](Cc1ccc(O)cc1)N(C)C(=O)[C@H](CO)NC(=O)[C@@H](Cc1cncs1)NC(=O)CCc1ccc(F)cc1)C(=O)N[C@@H](CCCNC(=N)N)C(=O)N1CCC[C@H]1C(=O)N[C@H](C)C(N)=O [Compound 183, (3-10)[N-(3-(4-Fluorophenyl)propionyl)-D-Thiaz^3 -NMeTyr^5 -D-Lys^6 -D-Ala^10]LHRH] ({Propanoyl(3-(4-F-phenyl))}-[X10]S[NMeY][dK]LRP[dA]-NH2) | 0.0263 |
| CC(C)C[C@H](NC(=O)[C@@H](CCCCNC(=O)c1cccnc1)NC(=O)[C@H](CCCCNC(=O)c1cccnc1)NC(=O)[C@H](CO)NC(=O)[C@@H](Cc1cccc2ccccc12)NC(=O)CCc1ccc(F)cc1)C(=O)N[C@@H](CCCNC(=N)N)C(=O)N1CCC[C@H]1C(=O)N[C@H](C)C(N)=O [Compound 191] ({Propanoyl(3-(4-F-phenyl))}-[d1Nal]SK(Nicotinoyl)[dK](Nicotinoyl)LRP[dA]-NH2) | 0.00955 |
| CC(C)C[C@H](NC(=O)[C@@H](CCCCNC(=O)c1cccnc1)NC(=O)[C@H](Cc1ccc(O)cc1)N(C)C(=O)[C@H](CO)NC(=O)[C@@H](CC1CCCCC1)NC(=O)CCc1ccc(F)cc1)C(=O)N[C@@H](CCCCNC(C)C)C(=O)N1CCC[C@H]1C(=O)N[C@H](C)C(N)=O [Compound 254, (3-10)[N-(3-(4-Fluorophenyl)propionyl)-D-Cha^3 -NMeTyr^5 -D-Lys^6 (N-epsilon-nicotinyl)-Lys^8 (N-epsilon-isopropyl)-D-Ala^10]LHRH] ({Propanoyl(3-(4-F-phenyl))}-[dCha]S[NMeY][dK](Nicotinoyl)L[Lys(iPr)]P[dA]-NH2) | 0.012 |
| CC(C)C[C@H](NC(=O)[C@@H](Cc1cncs1)NC(=O)[C@H](Cc1ccc(O)cc1)N(C)C(=O)[C@H](CO)NC(=O)[C@@H](Cc1cccc2ccccc12)NC(=O)CCc1ccc(F)cc1)C(=O)N[C@@H](CCCCNC(C)C)C(=O)N1CCC[C@H]1C(=O)N[C@H](C)C(N)=O [Compound 204, (3-10)[N-(3-(4-Fluorophenyl)propionyl)-D-1-Nal^3 -NMeTyr^5 -D-Thiaz6-Lys^8 (N-epsilon-isopropyl)-D-Ala^10]LHRH] ({Propanoyl(3-(4-F-phenyl))}-[d1Nal]S[NMeY][X10]L[Lys(iPr)]P[dA]-NH2) | 0.0214 |
| CCNC(=O)[C@@H]1CCCN1C(=O)[C@H](CCCNC(=N)N)NC(=O)[C@H](CC(C)C)NC(=O)[C@@H](Cc1c[nH]c2ccccc12)NC(=O)[C@H](Cc1ccc(O)cc1)NC(=O)[C@H](CO)NC(=O)[C@@H](Cc1cccs1)NC(=O)[C@H](Cc1ccccc1)NC(=O)N1CCOCC1 [Compound 236, (2-9)[N-(alpha-Morpholinocarbonyl)-Phe^2 -D-Thia^3 -D-Trp^6 -Pro^9 NHEt]LHRH] ({Morpholide-CO}-F[d2Thi]SY[dW]LRP-NHEt) | 0.708 |
